# Source: article PMC9635472, “Design, synthesis, and biological evaluation of novel ciprofloxacin derivatives as potential anticancer agents targeting topoisomerase II enzyme” (Journal of Enzyme Inhibition and Medicinal Chemistry, 2022)
# Experiments:
# [1] = tested on: Human bladder cancer (T-24) cell line; experiment: MTT cell viability assay, T-24 cells; format: cell-based; settings: bladder cancer cell line T-24, treatment for 24 h (table title), means of three experiments, read-out: IC50 (μM* ± SD) T-24
# Protocol: (§1) Human bladder cancer (T-24) and human prostate carcinoma (PC-3) cell lines were obtained from American Type Culture Collection (ATCC; Manassas, VA USA). Cells were maintained in Dulbecco’s modified Eagle medium with 10% foetal bovine serum at 37 °C and 5% CO2. All the operations were carried out under strict aseptic conditions. The culture medium was removed to a centrifuge tube containing 9.0 ml complete culture medium and spanned at approximately 125 × g for 5 to 7 min. The cell layer was rinsed with 0.25% (w/v) trypsin- […] EDTA solution by which all traces of serum-containing inhibitor were removed. Trypsin EDTA solution 2.0 to 3.0 ml was added to a flask and cells were monitored under an inverted microscope until the cell layer was dispersed (usually within 5–15 min). A complete growth medium was added (6.0–8.0 ml), and cells were aspirated by gentle pipetting. The cell pellet was suspended with the recommended complete medium and dispensed into a 75 cm^2 culture flask. The culture vessel containing the complete growth medium was placed in the incubator for 24 h to at 37 °C. The cells were treated with different concentrations (0.39, 1.60, 6.25, 25, and 100 μg/ml) of each of the test compounds or doxorubicin, […], then the plates were examined under the inverted microscope and finally the MTT assay was carried out.
# (§2) Anti-cancer activity of the newly synthesised compounds was evaluated in vitro against both T-24 and PC-3 cell lines according to the MTT method. Cells were seeded into 96-well plates (flat bottom) at a density of 10 000 cells/well for 24 h. The vial of MTT to be used was reconstituted with 3 ml of medium or balanced salt solution without phenol red and serum. then, a reconstituted MTT vial was added in an amount equal to 10% of the culture medium volume. Cultures were incubated for 2–4 h depending on the cell type and maximum cell density and removed from the incubator and the formazan crystals were dissolved via the addition of an amount of MTT solubilisation solution (M-8910) equal to the original culture medium volume. ROBONIK P2000 spectrophotometer at a wavelength of 570 nm was used to measure the colour intensity spectrophotometrically. The survival curve of both T-24 and PC-3 cells was obtained by plotting the percentage of surviving cells against the drug after each compound. The IC50 value for each test compound and the reference drug doxorubicin was calculated.
# (§3) In this study, all the newly synthesised CP derivatives were subjected to anticancer activity evaluation against bladder (T-24) and prostate cancer (PC-3) cell lines. The compounds were evaluated for their activity using 5 doses determinations (100 μg/ml, 25 μg/ml, 6.25 μg/ml, 1.60 μg/ml, and 0.39 μg/ml). Their half-maximal inhibitory concentration (IC50) values were measured. Doxorubicin was chosen as a reference anticancer drug[65].
# [2] = tested on: human prostate carcinoma (PC-3) cell line; experiment: MTT cell viability assay, PC-3 cells; format: cell-based; settings: prostate cancer cell line PC-3, treatment for 24 h (table title), means of three experiments, read-out: IC50 (μM* ± SD) PC-3
# Protocol: as §1, §2, §3
IC50 [1] [µM],IC50 [2] [µM],melting point [°C],SMILES
17.2 ± 0.93,3.38 ± 0.18,210 to 215,"O=C(CN1CCN(c2cc3c(cc2F)c(=O)c(C(=O)O)cn3C2CC2)CC1)NNCC(=O)c1cccc(Br)c1 [Compound 10b, 7-(4-(2-(2-(2-(3-Bromophenyl)-2-oxoethyl)hydrazinyl)-2-oxo-ethyl)piperazin-1-yl)-1-cyclopropyl-6-fluoro-4-oxo-1,4-dihydroquinoline-3-carboxylic acid]"
336 ± 18.1,41.1 ± 2.09,263 to 265,"O=C(CN1CCN(c2cc3c(cc2F)c(=O)c(C(=O)O)cn3C2CC2)CC1)NN=C1C(=O)Nc2cccc(Br)c21 [Compound 8b, 7-(4-(2-(2-(4-Bromo-2-oxoindolin-3-ylidene)hydrazinyl)-2-oxoethyl)piperazin-1-yl)-1-cyclopropyl-6-fluoro-4-oxo-1,4-dihydro-quinoline-3-carboxylic acid]"
15.9 ± 0.87,7.54 ± 0.39,256 to 258,"O=C(CN1CCN(c2cc3c(cc2F)c(=O)c(C(=O)O)cn3C2CC2)CC1)NN=c1[nH]c(-c2ccccc2)cs1 [Compound 15, 1-cyclopropyl-6-fluoro-4-oxo-7-(4-(2-oxo-2-(2-(4-phenylthiazol-2(3H)-ylidene)hydrazinyl)ethyl)piperazin-1-yl)-1,4-dihydroquinoline-3-carboxylic acid]"
134 ± 7.23,4.85 ± 0.27,238 to 240,"COc1ccc(NC(=S)NNC(=O)CN2CCN(c3cc4c(cc3F)c(=O)c(C(=O)O)cn4C3CC3)CC2)cc1 [Compound 9c, 1-Cyclopropyl-6-fluoro-7-(4-(2-(2-((4-methoxyphenyl)carbamo-thioyl)hydrazinyl)-2-oxoethyl)piperazin-1-yl)-4-oxo-1,4-dihydroquinoline-3-carboxylic acid]"
34.5 ± 1.86,30.5 ± 1.56,188 to 200,"NC(=S)NNC(=O)CN1CCN(c2cc3c(cc2F)c(=O)c(C(=O)O)cn3C2CC2)CC1 [Compound 13, 7-(4-(2-(2-carbamothioylhydrazinyl)-2-oxoethyl)piperazin-1-yl)-1-cyclopropyl-6-fluoro-4-oxo-1,4-dihydroquinoline-3-carboxylic acid]"
28.6 ± 1.54,19.3 ± 0.98,285 to 287,"Cc1cccc(Cl)c1NC(=O)NNC(=O)CN1CCN(c2cc3c(cc2F)c(=O)c(C(=O)O)cn3C2CC2)CC1 [Compound 9b, 7-(4-(2-(2-((2-Chloro-6-methylphenyl)carbamoyl)hydrazinyl)-2-oxoethyl)piperazin-1-yl)-1-cyclopropyl-6-fluoro-4-oxo-1,4-dihydro-quinoline-3-carboxylic acid]"
68.5 ± 3.69,82.2 ± 4.18,184 to 186,"O=C(CN1CCN(c2cc3c(cc2F)c(=O)c(C(=O)O)cn3C2CC2)CC1)NN1C(=O)CCC1=O [Compound 11, 1-cyclopropyl-7-(4-(2-((2,5-dioxopyrrolidin-1-yl)amino)-2-oxoethyl)piperazin-1-yl)-6-fluoro-4-oxo-1,4-dihydroquinoline-3-carboxylic acid]"
45.4 ± 2.45,74.3 ± 3.78,183 to 185,"O=C(CN1CCN(c2cc3c(cc2F)c(=O)c(C(=O)O)cn3C2CC2)CC1)NNCC(=O)c1ccccc1 [Compound 10a, 1-Cyclopropyl-6-fluoro-4-oxo-7-(4-(2-oxo-2-(2-(2-oxo-2-phenyl-ethyl)hydrazinyl)ethyl)piperazin-1-yl)-1,4-dihydroquinoline-3-carboxylic acid]"
47 ± 1.09,126 ± 6.39,190 to 192,"O=C(CN1CCN(c2cc3c(cc2F)c(=O)c(C(=O)O)cn3C2CC2)CC1)NN1C(=O)c2ccccc2C1=O [Compound 12, 1-cyclopropyl-7-(4-(2-((1,3-dioxoisoindolin-2-yl)amino)-2-oxoethyl)piperazin-1-yl)-6-fluoro-4-oxo-1,4-dihydroquinoline-3-carboxylic acid]"
19.5 ± 0.58,6.49 ± 0.24,240 to 242,"O=C(CN1CCN(c2cc3c(cc2F)c(=O)c(C(=O)O)cn3C2CC2)CC1)NN=C1NC(=O)CS1 [Compound 14, 1-cyclopropyl-6-fluoro-4-oxo-7-(4-(2-oxo-2-(2-(4-oxothiazolidin-2-ylidene)hydrazinyl)ethyl)piperazin-1-yl)-1,4-dihydroquinoline-3-carboxylic acid]"

# More lines, now with the values behind:
SMILES,IC50 [1] [µM],IC50 [2] [µM],melting point [°C]
"Cc1cc(C)n(C(=O)CN2CCN(c3cc4c(cc3F)c(=O)c(C(=O)O)cn4C3CC3)CC2)n1 [Compound 5, 1-cyclopropyl-7-(4-(2-(3,5-dimethyl-1H-pyrazol-1-yl)-2-oxoethyl)piperazin-1-yl)-6-fluoro-4-oxo-1,4-dihydro-quinoline-3-carboxylic acid]",25.9 ± 1.39,24.9 ± 1.26,–
"CC(=NNC(=O)CN1CCN(c2cc3c(cc2F)c(=O)c(C(=O)O)cn3C2CC2)CC1)c1ccc(Cl)s1 [Compound 7f, 7-(4-(2-(2-(1-(5-Chlorothiophen-2-yl)ethylidene)hydrazinyl)-2-oxoethyl)piperazin-1-yl)-1-cyclopropyl-6-fluoro-4-oxo-1,4-dihydro-quinoline-3-carboxylic acid]",124 ± 6.7,136 ± 6.94,286 to 288
"CC1=NN(C(=O)CN2CCN(c3cc4c(cc3F)c(=O)c(C(=O)O)cn4C3CC3)CC2)C(=O)C1 [Compound 3, 1-cyclopropyl-6-fluoro-7-(4-(2-(3-methyl-5-oxo-4,5-dihydro-1H-pyrazol-1-yl)-2-oxoethyl)piperazin-1-yl)-4-oxo-1,4-dihydroquinoline-3-carboxylic acid]",37.3 ± 2.02,98.2 ± 5,188 to 190
"CC(=NNC(=O)CN1CCN(c2cc3c(cc2F)c(=O)c(C(=O)O)cn3C2CC2)CC1)c1ccccc1O [Compound 7d, 1-Cyclopropyl-6-fluoro-7-(4-(2-(2-(1-(2-hydroxyphenyl)ethylidene)hydrazinyl)-2-oxoethyl)piperazin-1-yl)-4-oxo-1,4-dihydroquinoline-3-carboxylic acid]",88 ± 4.75,8.81 ± 0.44,166 to 168
"CC(=NNC(=O)CN1CCN(c2cc3c(cc2F)c(=O)c(C(=O)O)cn3C2CC2)CC1)c1cccs1 [Compound 7e, 1-Cyclopropyl-6-fluoro-4-oxo-7-(4-(2-oxo-2-(2-(1-(thiophen-2-yl)ethylidene)hydrazinyl)ethyl)piperazin-1-yl)-1,4-dihydroquinoline-3-carboxylic acid]",25 ± 0.2,50.5 ± 10.4,245 to 247
"N=C1CC(=O)NN1C(=O)CN1CCN(c2cc3c(cc2F)c(=O)c(C(=O)O)cn3C2CC2)CC1 [Compound 4, 1-cyclopropyl-6-fluoro-7-(4-(2-(5-imino-3-oxopyrazolidin-1-yl)-2-oxoethyl)piperazin-1-yl)-4-oxo-1,4-dihydroquinoline-3-carboxylic acid]",25.5 ± 1.38,29.9 ± 1.53,181 to 183
"CC(=NNC(=O)CN1CCN(c2cc3c(cc2F)c(=O)c(C(=O)O)cn3C2CC2)CC1)c1ccc(N)cc1 [Compound 7c, 7-(4-(2-(2-(1-(4-Aminophenyl)ethylidene)hydrazinyl)-2-oxoethyl)-piperazin-1-yl)-1-cyclopropyl-6-fluoro-4-oxo-1,4-dihydroquinoline-3-carboxylic acid]",25.6 ± 0.71,32.8 ± 0.86,173 to 175
